Laboratory results: PubChem BioAssay AID1918946 (Molecular Pharmacology Branch, DTP, NCI, 2023)

Tested on: 885512-296-R-J2-PDC complex spheroid viability
Assay: Anticancer human tumor 885512-296-R-J2-PDC patient-derived breast carcinoma cell line growth inhibition
Conditions: for IC50: curve of first compound; for viability, T/C: stronger effect = lower value
In short: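 Complex spheroids of tumor cells with HUVEC and human MSCs, exposed to iadademstat combined with other agents. Each agent tested in half-log steps from near clinical Cmax (else 10 microM top), DMSO ≤0.25%.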

[1] = second compound 0.1 µM, first compound 0.000316 µM
[2] = second compound 0.1 µM, first compound 0.001 µM
[3] = second compound 0.1 µM, first compound 0.00316 µM
[4] = second compound 0.1 µM, first compound 0.01 µM
[5] = second compound 0.1 µM, first compound 0.0316 µM
[6] = second compound 0.1 µM, first compound 0.1 µM
[7] = second compound 0.316 µM, first compound 0.000316 µM
[8] = second compound 0.316 µM, first compound 0.001 µM
[9] = second compound 0.316 µM, first compound 0.00316 µM
[10] = second compound 0.316 µM, first compound 0.01 µM
[11] = second compound 0.316 µM, first compound 0.0316 µM
[12] = second compound 0.316 µM, first compound 0.1 µM
[13] = second compound 1 µM, first compound 0.000316 µM
[14] = second compound 1 µM, first compound 0.001 µM
[15] = second compound 1 µM, first compound 0.00316 µM
[16] = second compound 1 µM, first compound 0.01 µM
[17] = second compound 1 µM, first compound 0.0316 µM
[18] = second compound 1 µM, first compound 0.1 µM
[19] = second compound 3.16 µM, first compound 0.000316 µM
[20] = second compound 3.16 µM, first compound 0.001 µM
[21] = second compound 3.16 µM, first compound 0.00316 µM
[22] = second compound 3.16 µM, first compound 0.01 µM
[23] = second compound 3.16 µM, first compound 0.0316 µM
[24] = second compound 3.16 µM, first compound 0.1 µM
[25] = second compound 10 µM, first compound 0.000316 µM
[26] = second compound 10 µM, first compound 0.001 µM
[27] = second compound 10 µM, first compound 0.00316 µM
[28] = second compound 10 µM, first compound 0.01 µM
[29] = second compound 10 µM, first compound 0.0316 µM
[30] = second compound 10 µM, first compound 0.1 µM
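Further: spheroids exposed to agents for 7 days before viability read.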

With CC(C)CC(NC(=O)C(Cc1ccccc1)NC(=O)c1cnccn1)B(O)O (stereo not given) + NC1CCC(NC2CC2c2ccccc2)CC1 the IC50 (second compound 0.1 µM) was 1.3 nM, the IC50 (second compound 0.316 µM) was 1.34 nM and the IC50 (second compound 1 µM) was 1.38 nM. The IC50 (second compound 3.16 µM) was 1.33 nM, the IC50 (second compound 10 µM) was 1.09 nM and the viability, T/C [1] was 149%. For the same compound, the viability, T/C [2] was 63.9%, the viability, T/C [3] was 2.42% and the viability, T/C [4] was 0.24%. The viability, T/C [5] was 7.32%, the viability, T/C [6] was 3.74% and the viability, T/C [7] was 134%. It also gave a viability, T/C [8] of 65.7%, a viability, T/C [9] of 2.51% and a viability, T/C [10] of 0.43%. The viability, T/C [11] was 7.09%, the viability, T/C [12] was 3.61% and the viability, T/C [13] was 152%. The viability, T/C [14] was 68.4%, the viability, T/C [15] was 2.46% and the viability, T/C [16] was 0.35%. For the same compound, the viability, T/C [17] was 3.66%, the viability, T/C [18] was 3.45% and the viability, T/C [19] was 137%. The viability, T/C [20] was 66.2%, the viability, T/C [21] was 1.59% and the viability, T/C [22] was 0.23%. For the same compound, the viability, T/C [23] was 0.08%, the viability, T/C [24] was 0.08% and the viability, T/C [25] was 138%. It also gave a viability, T/C [26] of 54%, a viability, T/C [27] of 1.4% and a viability, T/C [28] of 0.2%. The viability, T/C [29] was 0.09% and the viability, T/C [30] was 0.13%.
For CC(C)CC(NC(=O)CNC(=O)c1cc(Cl)ccc1Cl)B1OC(=O)CC(CC(=O)O)(C(=O)O)O1 (stereo not given) + NC1CCC(NC2CC2c2ccccc2)CC1, the IC50 (second compound 0.1 µM) was 6.41 nM, the IC50 (second compound 0.316 µM) was 6.9 nM and the IC50 (second compound 1 µM) was 6.61 nM. It also gave an IC50 (second compound 3.16 µM) of 6.51 nM, an IC50 (second compound 10 µM) of 5.07 nM and a viability, T/C [1] of 148%. The viability, T/C [2] was 136%, the viability, T/C [3] was 102% and the viability, T/C [4] was 16.9%. It also gave a viability, T/C [5] of 4.82%, a viability, T/C [6] of 8.2% and a viability, T/C [7] of 125%. For the same compound, the viability, T/C [8] was 126%, the viability, T/C [9] was 106% and the viability, T/C [10] was 23.3%. It also gave a viability, T/C [11] of 3.92%, a viability, T/C [12] of 3.86% and a viability, T/C [13] of 121%. For the same compound, the viability, T/C [14] was 131%, the viability, T/C [15] was 103% and the viability, T/C [16] was 20.4%. It also gave a viability, T/C [17] of 4.02%, a viability, T/C [18] of 6.64% and a viability, T/C [19] of 124%. For the same compound, the viability, T/C [20] was 117%, the viability, T/C [21] was 110% and the viability, T/C [22] was 14.4%. The viability, T/C [23] was 5.03%, the viability, T/C [24] was 1.02% and the viability, T/C [25] was 107%. The viability, T/C [26] was 107%, the viability, T/C [27] was 76.3% and the viability, T/C [28] was 12%. The viability, T/C [29] was 2.47% and the viability, T/C [30] was 0.56%.
Work on Nc1ccccc1NC(=O)c1ccc(CNC(=O)OCc2cccnc2)cc1 + NC1CCC(NC2CC2c2ccccc2)CC1 yielded an IC50 (second compound 0.1 µM) of 106 nM, an IC50 (second compound 0.316 µM) of 108 nM and an IC50 (second compound 1 µM) of 123 nM. For the same compound, the IC50 (second compound 3.16 µM) was 124 nM, the IC50 (second compound 10 µM) was 90.7 nM and the viability, T/C (second compound 0.1 µM, first compound 0.00949 µM) was 123%. For the same compound, the viability, T/C (second compound 0.1 µM, first compound 0.03 µM) was 111%, the viability, T/C (second compound 0.1 µM, first compound 0.0949 µM) was 50.6% and the viability, T/C (second compound 0.1 µM, first compound 0.3 µM) was 25.3%. The viability, T/C (second compound 0.1 µM, first compound 0.949 µM) was 16.7%, the viability, T/C (second compound 0.1 µM, first compound 3 µM) was 7.75% and the viability, T/C (second compound 0.316 µM, first compound 0.00949 µM) was 115%. The viability, T/C (second compound 0.316 µM, first compound 0.03 µM) was 110%, the viability, T/C (second compound 0.316 µM, first compound 0.0949 µM) was 51.7% and the viability, T/C (second compound 0.316 µM, first compound 0.3 µM) was 24.6%. The viability, T/C (second compound 0.316 µM, first compound 0.949 µM) was 15.5%, the viability, T/C (second compound 0.316 µM, first compound 3 µM) was 8.27% and the viability, T/C (second compound 1 µM, first compound 0.00949 µM) was 116%. The viability, T/C (second compound 1 µM, first compound 0.03 µM) was 106%, the viability, T/C (second compound 1 µM, first compound 0.0949 µM) was 52.9% and the viability, T/C (second compound 1 µM, first compound 0.3 µM) was 28.6%. It also gave a viability, T/C (second compound 1 µM, first compound 0.949 µM) of 11.4%, a viability, T/C (second compound 1 µM, first compound 3 µM) of 6.94% and a viability, T/C (second compound 3.16 µM, first compound 0.00949 µM) of 123%. For the same compound, the viability, T/C (second compound 3.16 µM, first compound 0.03 µM) was 105%, the viability, T/C (second compound 3.16 µM, first compound 0.0949 µM) was 54.1% and the viability, T/C (second compound 3.16 µM, first compound 0.3 µM) was 26.6%. For the same compound, the viability, T/C (second compound 3.16 µM, first compound 0.949 µM) was 12.5%, the viability, T/C (second compound 3.16 µM, first compound 3 µM) was 4.09% and the viability, T/C (second compound 10 µM, first compound 0.00949 µM) was 107%. It also gave a viability, T/C (second compound 10 µM, first compound 0.03 µM) of 89.8%, a viability, T/C (second compound 10 µM, first compound 0.0949 µM) of 46.5% and a viability, T/C (second compound 10 µM, first compound 0.3 µM) of 20.5%. The viability, T/C (second compound 10 µM, first compound 0.949 µM) was 9.82% and the viability, T/C (second compound 10 µM, first compound 3 µM) was 4.99%.
For O=C(c1cc(Cc2n[nH]c(=O)c3ccccc23)ccc1F)N1CCN(C(=O)C2CC2)CC1 + NC1CCC(NC2CC2c2ccccc2)CC1, the IC50 (second compound 0.1 µM) was 630 nM, the IC50 (second compound 0.316 µM) was 519 nM and the IC50 (second compound 1 µM) was 563 nM. For the same compound, the IC50 (second compound 3.16 µM) was 583 nM, the IC50 (second compound 10 µM) was 335 nM and the viability, T/C [5] was 104%. For the same compound, the viability, T/C [6] was 113%, the viability, T/C (second compound 0.1 µM, first compound 0.316 µM) was 78.7% and the viability, T/C (second compound 0.1 µM, first compound 1 µM) was 31.2%. For the same compound, the viability, T/C (second compound 0.1 µM, first compound 3.16 µM) was 10.8%, the viability, T/C (second compound 0.1 µM, first compound 10 µM) was 12.9% and the viability, T/C [11] was 111%. It also gave a viability, T/C [12] of 98.2%, a viability, T/C (second compound 0.316 µM, first compound 0.316 µM) of 72.1% and a viability, T/C (second compound 0.316 µM, first compound 1 µM) of 21.8%. It also gave a viability, T/C (second compound 0.316 µM, first compound 3.16 µM) of 8.68%, a viability, T/C (second compound 0.316 µM, first compound 10 µM) of 10.8% and a viability, T/C [17] of 84.7%. The viability, T/C [18] was 101%, the viability, T/C (second compound 1 µM, first compound 0.316 µM) was 67.5% and the viability, T/C (second compound 1 µM, first compound 1 µM) was 30.7%. For the same compound, the viability, T/C (second compound 1 µM, first compound 3.16 µM) was 10.9%, the viability, T/C (second compound 1 µM, first compound 10 µM) was 7.07% and the viability, T/C [23] was 100%. For the same compound, the viability, T/C [24] was 98.8%, the viability, T/C (second compound 3.16 µM, first compound 0.316 µM) was 75.5% and the viability, T/C (second compound 3.16 µM, first compound 1 µM) was 27.5%. The viability, T/C (second compound 3.16 µM, first compound 3.16 µM) was 7.3%, the viability, T/C (second compound 3.16 µM, first compound 10 µM) was 5.31% and the viability, T/C [29] was 96.1%. For the same compound, the viability, T/C [30] was 74.6%, the viability, T/C (second compound 10 µM, first compound 0.316 µM) was 53.7% and the viability, T/C (second compound 10 µM, first compound 1 µM) was 26.1%. It also gave a viability, T/C (second compound 10 µM, first compound 3.16 µM) of 7.89% and a viability, T/C (second compound 10 µM, first compound 10 µM) of 3.97%.
